Molecules are shown by their SMILES.

A short description of this data set: Aldehyde reactivity of compounds: fluorogenic reaction with acetaldehyde in phosphate buffer, excitation/emission spectra. The class given is physicochemical. How it is done:
Spectra were taken at pH 6 in a 50 mM phosphate buffer solution.
Spectra were taken at pH 6 in 50 mM phosphate buffer solution.
A sample of Compound 2 (5 mg, 0.0126 mmol) is dissolved in 10 ml of pH 6.5, 50 mmol phosphate buffer solution. To this non-fluorescent solution, is added 25 ul, 1 mol solution of acetaldehyde in water at room temperature. […] The reaction is complete in 10 minutes to give a stable […] analog. Its absorption max is at 548 nm and emission max is at 580 nm (see FIGS. 3A and B).

Setting [1] is: after reaction with acetaldehyde, pH 6.5 phosphate buffer.
Where [2] appears, read: aldehyde-reacted, pH 6, 50 mM phosphate buffer, FIG. 3B.

As for `NN=c1ccc2c(-c3ccccc3S(=O)(=O)O)c3ccc(NN)cc3oc-2c1` [Compound 2, 2-(6-hydrazinyl-3-hydrazono-3H-xanthen-9-yl)benzenesulfonate], the “fluorescence of solution after addition of acetaldehyde” value (25 ul 1 mol acetaldehyde in water, room temperature, pH 6.5 phosphate buffer, within a few minutes) is given as “highly fluorescent”. Further, where the note is “acetaldehyde, pH 6, 50 mM phosphate buffer, FIG. 1”, the “change of fluorescence upon reaction with an aldehyde (emission spectra before and after contact with acetaldehyde)” value is on record as “significant fluorescent increase”. Besides, under setting [1], the “absorption max of acetaldehyde reaction product” value came to 548 nm and the “emission max of acetaldehyde reaction product” value was found to be 580 nm. For the same compound, under setting [2], the “emission spectra maximum, aldehyde-reacted compound” value came out at 581 nm and the “excitation maximum, aldehyde-reacted compound” value is listed as 548 nm. Moreover, the “time to complete reaction with acetaldehyde” value (room temperature, pH 6.5, 50 mmol phosphate buffer) worked out at 10 min. In addition, the “excitation maximum, un-reacted compound” value (un-reacted dye, FIG. 3A) is recorded as 519 nm.

Source of the values: patent US10006918B2, “Fluorogenic hydrazine-substituted compounds” (LIFE TECHNOLOGIES CORPORATION, priority 2008, dated 2018).
